{"source": "patent US20070015828A1", "about": "(Wyeth, priority 2005, published 2007)", "key": {"Opiate, Delta 2 (hr)": {"target": "T1, Opiate, Delta 2 (hr) (Homo sapiens, UniProt P41143)", "T1 construct": "Novascreen (contract assay)", "T1 sequence (P41143 whole entry)": "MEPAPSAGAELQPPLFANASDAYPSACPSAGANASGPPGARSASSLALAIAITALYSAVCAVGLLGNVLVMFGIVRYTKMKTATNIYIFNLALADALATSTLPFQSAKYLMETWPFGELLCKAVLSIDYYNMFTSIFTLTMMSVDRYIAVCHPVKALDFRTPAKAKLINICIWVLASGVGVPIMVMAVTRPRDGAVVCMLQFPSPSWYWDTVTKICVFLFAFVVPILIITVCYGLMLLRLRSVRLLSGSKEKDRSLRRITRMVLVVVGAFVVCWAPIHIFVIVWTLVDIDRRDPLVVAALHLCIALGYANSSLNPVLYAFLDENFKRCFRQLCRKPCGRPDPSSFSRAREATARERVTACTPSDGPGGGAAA", "assay": "Receptor binding assay: Opiate Delta 2", "settings": "Test Compound @ 10 1 M"}, "Pharmacokinetics in dog": {"assay": "Pharmacokinetics in dog", "type": "in vivo", "settings": "plasma, male dogs", "procedure": "Preclinical pharmacokinetics of 1-[2-dimethylamino-1-(4-phenol)ethyl]-cis-1,4-cyclohexandiol was determined after a single 2.5 mg/kg IV bolus and 7.5 mg/kg oral dose in male dogs. […] The oral bioavailability was high (60%)."}, "rat tail flick assay": {"system": "rat tail flick assay", "assay": "Rat tail flick assay (acute pain)", "type": "in vivo", "settings": "up to 30 mg/kg po"}, "Histamine, H3": {"system": "Histamine, H3", "assay": "Receptor binding assay: Histamine H3", "settings": "Test Compound @ 10 1 M"}, "[1]": {"assay": "In vitro metabolism in hepatic microsomes, monkey", "type": "in vitro ADME", "settings": "male monkeys, read-out: t1/2 in hepatic microsomes", "procedure": "(§1) In vitro metabolism of 1-[2-dimethylamino-1-(4-phenol)ethyl]-cis-1,4-cyclohexandiol was conducted in the hepatic microsomes of Sprague-Dawley rats, male dogs, male monkeys and mixed male and female humans to characterize metabolic stability and identification of metabolites. 1-[2-dimethylamino-1-(4-phenol)ethyl]-cis-1,4-cyclohexandiol was stable (t1/2>60 minutes) in hepatic microsomes indicating Phase I and II metabolism was minimal in all species."}, "[2]": {"assay": "In vitro metabolism in hepatic microsomes, dog", "type": "in vitro ADME", "settings": "male dogs, read-out: t1/2 in hepatic microsomes", "procedure": "as §1"}, "Serotonin, 5HT2C": {"system": "Serotonin, 5HT2C", "assay": "Receptor binding assay: Serotonin 5HT2C", "settings": "Test Compound @ 10 1 M"}, "Serotonin, 5HT6 (hr)": {"target": "Serotonin, 5HT6 (hr) (Homo sapiens, UniProt P50406)", "sequence (P50406 whole entry)": "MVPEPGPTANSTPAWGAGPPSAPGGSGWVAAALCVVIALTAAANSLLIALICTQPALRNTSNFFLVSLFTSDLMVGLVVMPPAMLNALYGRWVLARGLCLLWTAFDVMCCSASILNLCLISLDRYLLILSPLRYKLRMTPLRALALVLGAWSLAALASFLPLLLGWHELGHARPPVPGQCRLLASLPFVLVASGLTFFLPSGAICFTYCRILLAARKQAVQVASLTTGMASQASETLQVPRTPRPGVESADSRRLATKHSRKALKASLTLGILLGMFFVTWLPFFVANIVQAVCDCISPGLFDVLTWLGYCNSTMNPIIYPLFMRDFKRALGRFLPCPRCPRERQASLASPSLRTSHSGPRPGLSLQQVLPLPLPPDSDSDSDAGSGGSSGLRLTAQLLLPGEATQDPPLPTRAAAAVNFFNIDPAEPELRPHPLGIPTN", "assay": "Receptor binding assay: Serotonin 5HT6", "settings": "Test Compound @ 10 1 M"}, "Adrenergic, Alpha 2A (h)": {"target": "T2, Adrenergic, Alpha 2A (h) (Homo sapiens, UniProt P08913)", "T2 construct": "Novascreen (assay provider)", "T2 sequence (P08913 whole entry)": "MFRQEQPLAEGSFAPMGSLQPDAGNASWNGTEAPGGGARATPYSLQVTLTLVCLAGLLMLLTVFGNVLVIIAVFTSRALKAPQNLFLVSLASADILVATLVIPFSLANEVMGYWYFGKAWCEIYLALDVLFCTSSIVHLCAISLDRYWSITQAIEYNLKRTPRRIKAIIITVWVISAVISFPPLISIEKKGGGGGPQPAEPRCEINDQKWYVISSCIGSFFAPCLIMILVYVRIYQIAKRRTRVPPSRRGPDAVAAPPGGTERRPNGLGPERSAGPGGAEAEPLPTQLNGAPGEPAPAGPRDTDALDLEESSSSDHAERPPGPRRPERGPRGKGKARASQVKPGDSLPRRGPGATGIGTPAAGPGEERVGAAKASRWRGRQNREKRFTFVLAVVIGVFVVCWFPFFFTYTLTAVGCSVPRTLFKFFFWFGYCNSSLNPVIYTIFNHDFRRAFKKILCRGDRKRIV", "assay": "Receptor binding assay: Adrenergic Alpha 2A", "settings": "Test Compound @ 10 1 M"}, "cortical 5-HT": {"system": "cortical 5-HT", "assay": "Microdialysis study, rat dorsal lateral frontal cortex", "type": "in vivo", "settings": "male Sprague-Dawley rats, 30 mg/kg, combined with 5-HT1A antagonist WAY-100635 (0.3 mg/kg, s.c.) given 20 min before", "procedure": "1-[2-dimethylamino-1-(4-phenol)ethyl]-cis-1,4-cyclohexandiol was evaluated in a microdialysis study conducted in male Sprague-Dawley rats [M T Taber et al, Differential effects of coadministration of fluoxetine and WAY-100635 on serotonergic neurotransmission in vivo: sensitivity to sequence of injections, Synapse, 2000 October; 38(1):17-26.] This technique can capture the neurochemical effects of compounds in the brains of freely-moving rodents. The effects of 1-[2-dimethylamino-1-(4-phenol)ethyl]-cis-1,4-cyclohexandiol were studied in the rat dorsal lateral frontal cortex, a brain region thought to be involved in etiology and/or treatment of depression. To see whether any effects on serotonin could be observed, the compound (30 mg/kg, sc) was tested in combination with the selective 5-HT1A antagonist, N-[2-[4-(2-methoxyphenyl)-1-piperazinyl] ethyl]-N-(2-pyridinyl)cyclohexanecarboxamide (WAY-100635). […]\n• 24 hr post-operative recovery • 3 hr equilibration after probe insertion • 1 hr 40 min baseline • 5-HT1A antagonist N-[2-[4-(2-methoxyphenyl)-1-piperazinyl]ethyl]-N-(2-pyridinyl)cyclohexanecarboxamide [WAY-100635] (0.3 mg/kg, s.c.) given 20 min before 1-[2-dimethylamino-1-(4-phenol)ethyl]-cis-1,4-cyclohexandiol (30 mg/kg, […]) Sample Collection: Samples collected for 3 hr 2 min post-injections Analysis: 5-HT levels quantified by HPLC-ECD"}, "Glutamate, AMPA Site": {"system": "Glutamate, AMPA Site", "assay": "Receptor binding assay: Glutamate AMPA site", "settings": "Test Compound @ 10 1 M"}, "Serotonin, 5HT2A (h)": {"target": "T3, Serotonin, 5HT2A (h) (Homo sapiens, UniProt P28223)", "T3 construct": "Novascreen (contract assay)", "T3 sequence (P28223 whole entry)": "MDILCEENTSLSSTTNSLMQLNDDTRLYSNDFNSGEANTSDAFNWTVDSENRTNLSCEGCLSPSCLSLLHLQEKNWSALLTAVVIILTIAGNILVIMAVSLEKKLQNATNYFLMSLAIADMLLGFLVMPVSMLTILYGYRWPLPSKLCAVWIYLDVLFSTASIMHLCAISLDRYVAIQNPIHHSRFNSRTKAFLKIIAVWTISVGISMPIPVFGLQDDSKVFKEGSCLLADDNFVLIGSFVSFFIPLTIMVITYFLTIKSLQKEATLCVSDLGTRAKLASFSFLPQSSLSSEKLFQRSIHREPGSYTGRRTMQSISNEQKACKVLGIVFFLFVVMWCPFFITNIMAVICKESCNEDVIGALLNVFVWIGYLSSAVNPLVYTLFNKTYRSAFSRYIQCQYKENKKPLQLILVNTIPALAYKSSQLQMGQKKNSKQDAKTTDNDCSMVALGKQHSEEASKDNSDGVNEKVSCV", "assay": "Receptor binding assay: Serotonin 5HT2A", "settings": "Test Compound @ 10 1 M"}, "Dopamine, D4.4 (hr)": {"target": "Dopamine, D4.4 (hr) (Homo sapiens, UniProt P21917)", "assay": "Receptor binding assay: Dopamine D4.4", "settings": "Test Compound @ 10 1 M"}, "Imidazoline, I2 central": {"system": "Imidazoline, I2 central", "assay": "Imidazoline binding assay: I2 central", "settings": "Test Compound @ 10 1 M"}, "[3]": {"target": "T4, Norepinephrine transporter (Homo sapiens, UniProt P23975)", "T4 construct": "Novascreen (contract assay)", "T4 sequence (P23975 whole entry)": "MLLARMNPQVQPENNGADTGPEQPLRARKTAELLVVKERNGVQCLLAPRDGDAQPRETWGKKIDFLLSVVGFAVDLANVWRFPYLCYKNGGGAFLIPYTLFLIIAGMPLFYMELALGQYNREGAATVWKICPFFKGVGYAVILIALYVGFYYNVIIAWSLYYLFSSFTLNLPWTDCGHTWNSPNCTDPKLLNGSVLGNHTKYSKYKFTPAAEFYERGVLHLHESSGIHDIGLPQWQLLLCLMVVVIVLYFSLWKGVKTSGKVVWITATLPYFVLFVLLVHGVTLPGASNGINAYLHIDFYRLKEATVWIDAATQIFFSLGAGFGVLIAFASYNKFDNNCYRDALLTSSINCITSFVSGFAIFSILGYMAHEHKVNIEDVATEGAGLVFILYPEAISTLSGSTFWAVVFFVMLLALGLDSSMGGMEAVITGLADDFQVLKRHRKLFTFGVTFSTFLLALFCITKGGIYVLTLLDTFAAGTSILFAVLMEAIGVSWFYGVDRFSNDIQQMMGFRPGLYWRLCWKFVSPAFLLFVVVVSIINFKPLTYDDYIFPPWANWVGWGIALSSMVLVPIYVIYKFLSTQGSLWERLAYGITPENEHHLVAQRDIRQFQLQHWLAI", "assay": "Norepinephrine transporter (human recombinant) binding assay"}, "Adenosine A1": {"system": "Adenosine A1", "assay": "Receptor binding assay: Adenosine A1", "settings": "Test Compound @ 10 1 M"}, "Histamine, H1": {"target": "T5, Histamine, H1 (Bos taurus, UniProt P30546)", "T5 construct": "Novascreen (assay provider)", "T5 sequence (P30546 whole entry)": "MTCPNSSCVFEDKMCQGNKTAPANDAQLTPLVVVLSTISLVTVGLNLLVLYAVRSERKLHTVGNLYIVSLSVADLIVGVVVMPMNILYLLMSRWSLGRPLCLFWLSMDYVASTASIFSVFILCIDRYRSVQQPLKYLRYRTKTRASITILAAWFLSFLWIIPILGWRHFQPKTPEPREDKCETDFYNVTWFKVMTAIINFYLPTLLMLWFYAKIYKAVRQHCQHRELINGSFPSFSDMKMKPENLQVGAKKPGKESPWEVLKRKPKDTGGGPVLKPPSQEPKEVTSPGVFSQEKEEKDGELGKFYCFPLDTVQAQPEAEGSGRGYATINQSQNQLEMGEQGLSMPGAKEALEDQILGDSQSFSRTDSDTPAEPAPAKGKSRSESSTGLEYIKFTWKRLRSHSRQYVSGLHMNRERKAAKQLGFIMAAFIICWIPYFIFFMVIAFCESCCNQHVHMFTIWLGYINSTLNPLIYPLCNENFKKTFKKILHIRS", "assay": "Histamine H1 binding assay", "settings": "Test Compound @ 10 1 M, read-out: Receptor Binding % Inhibition"}, "Muscarinic, MS (hr)": {"target": "T6, Muscarinic, MS (hr) (Homo sapiens, UniProt P08912)", "T6 construct": "Novascreen (contract assay)", "T6 sequence (P08912 whole entry)": "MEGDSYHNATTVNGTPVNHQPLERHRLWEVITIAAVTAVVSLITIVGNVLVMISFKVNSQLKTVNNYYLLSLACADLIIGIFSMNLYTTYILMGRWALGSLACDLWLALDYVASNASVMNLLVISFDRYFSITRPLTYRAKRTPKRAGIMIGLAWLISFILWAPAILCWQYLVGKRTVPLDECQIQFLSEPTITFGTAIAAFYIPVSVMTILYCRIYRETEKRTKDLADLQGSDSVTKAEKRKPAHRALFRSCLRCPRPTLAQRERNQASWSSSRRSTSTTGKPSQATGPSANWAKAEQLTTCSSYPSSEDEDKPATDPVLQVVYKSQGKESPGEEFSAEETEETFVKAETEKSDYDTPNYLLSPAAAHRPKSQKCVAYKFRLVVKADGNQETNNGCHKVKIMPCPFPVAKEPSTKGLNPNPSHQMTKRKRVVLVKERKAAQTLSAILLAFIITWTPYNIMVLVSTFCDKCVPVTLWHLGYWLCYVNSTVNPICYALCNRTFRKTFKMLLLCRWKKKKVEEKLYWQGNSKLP", "assay": "Receptor binding assay: Muscarinic MS", "settings": "Test Compound @ 10 1 M"}, "Muscarinic, M2 (hr)": {"target": "T7, Muscarinic, M2 (hr) (Homo sapiens, UniProt P08172)", "T7 construct": "Novascreen (contract assay)", "T7 sequence (P08172 whole entry)": "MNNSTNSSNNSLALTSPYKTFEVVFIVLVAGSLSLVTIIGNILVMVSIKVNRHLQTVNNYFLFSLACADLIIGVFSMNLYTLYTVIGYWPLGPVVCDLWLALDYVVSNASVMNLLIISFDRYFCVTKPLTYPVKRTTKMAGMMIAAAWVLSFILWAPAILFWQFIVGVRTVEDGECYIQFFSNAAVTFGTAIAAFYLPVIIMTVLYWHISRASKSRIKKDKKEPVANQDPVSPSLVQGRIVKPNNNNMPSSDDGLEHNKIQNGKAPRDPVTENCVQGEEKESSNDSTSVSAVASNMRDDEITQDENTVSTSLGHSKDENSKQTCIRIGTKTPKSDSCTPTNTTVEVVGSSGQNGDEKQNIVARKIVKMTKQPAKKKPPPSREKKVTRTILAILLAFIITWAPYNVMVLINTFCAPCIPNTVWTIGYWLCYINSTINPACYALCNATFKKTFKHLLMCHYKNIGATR", "assay": "Receptor binding assay: Muscarinic M2", "settings": "Test Compound @ 10 1 M"}, "Serotonin, 5HT1A (hr)": {"target": "T8, Serotonin, 5HT1A (hr) (Homo sapiens, UniProt P08908)", "T8 construct": "Novascreen (contract assay)", "T8 sequence (P08908 whole entry)": "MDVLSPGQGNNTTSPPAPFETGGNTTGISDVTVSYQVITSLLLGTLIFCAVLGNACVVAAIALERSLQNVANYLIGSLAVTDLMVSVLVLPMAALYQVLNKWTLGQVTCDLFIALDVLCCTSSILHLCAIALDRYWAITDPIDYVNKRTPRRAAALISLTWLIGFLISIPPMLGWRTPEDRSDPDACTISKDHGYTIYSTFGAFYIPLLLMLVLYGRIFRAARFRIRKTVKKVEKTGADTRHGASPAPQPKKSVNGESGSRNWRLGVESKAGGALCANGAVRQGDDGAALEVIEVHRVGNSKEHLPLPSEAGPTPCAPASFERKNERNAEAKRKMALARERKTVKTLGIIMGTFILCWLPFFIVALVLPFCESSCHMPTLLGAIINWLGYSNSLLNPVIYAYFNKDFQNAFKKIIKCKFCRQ", "assay": "Receptor binding assay: Serotonin 5HT1A", "settings": "Test Compound @ 10 1 M"}, "[4]": {"system": "Glycine, Strychnine-sensitive", "assay": "Receptor binding assay: Glycine strychnine-sensitive", "settings": "Test Compound @ 10 1 M"}, "Muscarinic, M1 (hr)": {"target": "T9, Muscarinic, M1 (hr) (Homo sapiens, UniProt P11229)", "T9 construct": "Novascreen (contract assay)", "assay": "Receptor binding assay: Muscarinic M1", "settings": "Test Compound @ 10 1 M"}, "Serotonin Transporter": {"target": "T10, Serotonin Transporter (Homo sapiens, UniProt P31645)", "T10 construct": "Novascreen (contract assay)", "T10 sequence (P31645 whole entry)": "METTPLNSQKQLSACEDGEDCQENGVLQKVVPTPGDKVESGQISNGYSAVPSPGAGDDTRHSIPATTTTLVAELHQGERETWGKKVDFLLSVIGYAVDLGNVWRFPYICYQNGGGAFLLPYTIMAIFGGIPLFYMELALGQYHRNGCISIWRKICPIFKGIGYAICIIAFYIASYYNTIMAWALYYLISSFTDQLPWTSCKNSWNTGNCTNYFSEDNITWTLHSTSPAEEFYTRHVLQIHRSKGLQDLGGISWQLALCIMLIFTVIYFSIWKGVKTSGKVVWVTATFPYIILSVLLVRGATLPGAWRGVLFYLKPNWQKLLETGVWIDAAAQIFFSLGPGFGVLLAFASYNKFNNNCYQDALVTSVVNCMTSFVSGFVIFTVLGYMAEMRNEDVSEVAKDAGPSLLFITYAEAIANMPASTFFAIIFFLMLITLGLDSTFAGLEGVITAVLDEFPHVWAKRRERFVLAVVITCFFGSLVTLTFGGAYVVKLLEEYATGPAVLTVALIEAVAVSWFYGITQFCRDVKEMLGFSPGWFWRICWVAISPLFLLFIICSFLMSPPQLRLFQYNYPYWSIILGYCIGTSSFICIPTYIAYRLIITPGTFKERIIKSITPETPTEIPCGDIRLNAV", "assay": "Serotonin transporter (human) binding assay"}, "[5]": {"settings": "interpretation of the binding data in words"}}, "data": [{"smiles": "CN(C)CC(c1ccc(O)cc1)C1(O)CCC(O)CC1", "note": "(stereo not drawn) [1-[2-dimethylamino-1-(4-phenol)ethyl]-cis-1,4-cyclohexandiol]", "values": [{"measurement": "inhibition at 10 µM", "setting": "Opiate, Delta 2 (hr)", "value": 12.2, "unit": "%"}, {"measurement": "bioavailability", "setting": "Pharmacokinetics in dog; 7.5 mg/kg oral vs 2.5 mg/kg IV", "value": 60, "unit": "%"}, {"measurement": "clearance", "setting": "Pharmacokinetics in dog; single 2.5 mg/kg IV bolus", "value": "~7", "unit": "mL/min/kg"}, {"measurement": "half-life", "setting": "Pharmacokinetics in dog; single 2.5 mg/kg IV bolus, read-out: apparent terminal half-life (t1/2) (converted)", "value": 5.6, "unit": "h"}, {"measurement": "Vd", "setting": "Pharmacokinetics in dog; single 2.5 mg/kg IV bolus, read-out: apparent volume of distribution (VSS)", "value": 1.9, "unit": "L/kg"}, {"measurement": "half-life", "setting": "Pharmacokinetics in dog; single oral dose of 7.5 mg/kg, read-out: terminal oral half-life (converted)", "value": 6, "unit": "h"}, {"measurement": "effect on acute pain", "setting": "rat tail flick assay", "value": "not found to affect acute pain"}, {"measurement": "Receptor Binding % Inhibition", "setting": "Histamine, H3", "value": 14.00, "unit": "%"}, {"measurement": "half-life", "setting": "[1]", "value": "> 1", "unit": "h"}, {"measurement": "half-life", "setting": "[2]", "value": "> 1", "unit": "h"}, {"measurement": "Receptor Binding % Inhibition", "setting": "Serotonin, 5HT2C", "value": 10.05, "unit": "%"}, {"measurement": "inhibition at 10 µM", "setting": "Serotonin, 5HT6 (hr)", "value": 17.1, "unit": "%"}, {"measurement": "inhibition at 10 µM", "setting": "Adrenergic, Alpha 2A (h)", "value": 10.4, "unit": "%"}, {"measurement": "cortical 5-HT levels", "setting": "cortical 5-HT", "value": "Robust elevations"}, {"measurement": "Receptor Binding % Inhibition", "setting": "Glutamate, AMPA Site", "value": 2.50, "unit": "%"}, {"measurement": "inhibition at 10 µM", "setting": "Serotonin, 5HT2A (h)", "value": 3.7, "unit": "%"}, {"measurement": "inhibition at 10 µM", "setting": "Dopamine, D4.4 (hr)", "value": 3.39, "unit": "%"}, {"measurement": "Receptor Binding % Inhibition", "setting": "Imidazoline, I2 central", "value": 3.24, "unit": "%"}, {"measurement": "inhibition at 10 µM", "setting": "[3]; Norepinephrine transporter, Test Compound @ 10 1 M, read-out: Receptor Binding % Inhibition", "value": 49.7, "unit": "%"}, {"measurement": "norepinephrine reuptake inhibition activity", "setting": "[3]; [5]", "value": "acceptable"}, {"measurement": "Receptor Binding % Inhibition", "setting": "Adenosine A1", "value": "−8.51", "unit": "%"}, {"measurement": "inhibition at 10 µM", "setting": "Histamine, H1", "value": -7.84, "unit": "%"}, {"measurement": "inhibition at 10 µM", "setting": "Muscarinic, MS (hr)", "value": 5.4, "unit": "%"}, {"measurement": "inhibition at 10 µM", "setting": "Muscarinic, M2 (hr)", "value": 12, "unit": "%"}, {"measurement": "inhibition at 10 µM", "setting": "Serotonin, 5HT1A (hr)", "value": 1.8, "unit": "%"}, {"measurement": "Receptor Binding % Inhibition", "setting": "[4]", "value": "−2.38", "unit": "%"}, {"measurement": "inhibition at 10 µM", "setting": "Muscarinic, M1 (hr)", "value": -5.96, "unit": "%"}, {"measurement": "inhibition at 10 µM", "setting": "Serotonin Transporter; Serotonin Transporter, Test Compound @ 10 1 M, read-out: Receptor Binding % Inhibition", "value": 94.5, "unit": "%"}, {"measurement": "serotonin reuptake inhibition activity", "setting": "Serotonin Transporter; [5]", "value": "very good"}]}]}
